In patent US7786298B2, “Compounds and methods for nucleic acid mismatch detection” (California Institute of Technology, priority 2006, dated 2010):

Tested on: oligonucleotides containing a central CC mismatch
Assay: Photocleavage testing, denaturing PAGE of 5′-32P-end-labeled oligonucleotides
Type: biochemical
Settings: duplex 1 μM, Rh 1 μM, 20 mM NaCl, 10 mM NaPi, pH 7.1, 30 min, irradiation 5 min (325-450 nm); fully matched and mismatched oligonucleotides
Protocol: Compounds PEG-RhOG and [Rh(chrysi)(phen)(^PEGbipy)]^3+(i.e., compound A and intermediate 2, respectively, as described above) were used for photocleavage testing. Denaturing PAGE experiments with 5′-32P-end-labeled oligonucleotides containing or lacking a central CC mismatch were employed to test specific site targeting. Duplex DNA (1 μM) was incubated with variable concentrations of compound A (100 nm to 5 μM) for 30 min and then irradiated for 5 min.
Conditions were duplex (1 μM), Rh (1 μM) in 20 mM NaCl, 10 mM NaPi, pH 7.1 for 30 min at ambient temperature followed by irradiation for 5 min with a solar simulator (325-450 nm). Lanes 1, 2, 11, and 12 show Maxam-Gilbert sequencing reactions for matched (1, 2) and mismatched (11, 12) DNA. For matched and mismatched DNA, respectively, lanes 3 and 7 show fragments irradiated with no metal complex; lanes 4 and 8 show fragments with compound A but no irradiation; lanes 5, 6, 9, and 10 show fragments after irradiation in the presence of compound A (5, 9) and intermediate 2 (6, 10). The DNA sequence was 5′-32P-end-labeled-GCGCCGTCGTXCATGTG-3′ (SEQ ID NO:4) where X=C, G with a complement containing a matched or mismatched C at the bold site. The arrow marks the mismatched site.

**Q.** For “[Rh(chrysi)(phen)(^PEGbipy)]^3+ [intermediate 2]”, which “photocleavage on autoradiogram of denaturing 20% polyacrylamide gel” value is on record?
**A.** photocleavage
